{
  "source": "patent US20220354811A1",
  "about": "“METHODS AND COMPOSITIONS FOR MODULATING MACROPHAGES POLARIZATION” (INSERM (INSTITUT NATIONAL DE LA SANTÉ ET DE LA RECHERCHE …, priority 2019, published 2022)",
  "key": {"[1]": {"settings": "several recent studies (Frenette 2019; Barreyro 2015; Baskin-Bey 2007); cited from earlier work"}, "[2]": {"test_system": "IL4-polarized macrophages", "experiment": "mRNA expression in IL-4-polarized macrophages (RNAseq, qPCR)", "format": "cell-based, human", "description": "Human monocytes were differentiated during 5 days with 50 ng/mL CSF-1 and then polarized into MO-macrophages (CSF-1) or M2-macrophages (IL-4) for 24 (mRNA) or 48 hours. […] The expression of the indicated mRNA is analyzed by qPCR (mean ±SEM of 6 independent experiments). *P<0.05, **P<0.01 according to a paired student t test (versus M2-macrophages).\nThe RNA integrity (RNA Integrity Score≥7.0) was checked on the Agilent 2100 Bioanalyzer (Agilent) and quantity was determined using Qubit (Invitrogen). SureSelect Automated Strand Specific RNA Library Preparation Kit was used according to manufacturer's instructions with the Bravo Platform. Briefly, 50 to 200 ng of total RNA sample was used for poly-A mRNA selection using oligo(dT) beads and subjected to thermal mRNA fragmentation. The fragmented mRNA samples were subjected to cDNA synthesis and were further converted into double stranded DNA using the reagents supplied in the kit, and the resulting dsDNA was used for library preparation. The final libraries were bar-coded, purified, pooled together in equal concentrations and subjected to paired-end sequencing on Novaseq-6000 sequencer (Illumina) at Gustave Roussy.\nQuantification. Quality of raw FastQ files was assessed with Fastqc v0.11.8 and Fastq-screen v0.13.0. Quality report was gathered with MultiQC v1.8. Abundance estimation was performed with Salmon v0.14.1 using following parameters: —libType A —validateMappings —numBootstraps 60. Salmon index was created using Human Gencode reference annotation release 33 and using following parameters —gencode —keepDuplicates. Differential analysis. Statistical analysis was performed using R 3.6.1. Transcript expression levels were aggregated in gene expression levels using tximport v1.14.0 Bioconductor package. At this step only protein coding genes were considered. We also decided to keep only high quality annotations therefore genes annotated as “automated annotation” in GENCODE were discarded. DESeq2 v1.26.0 method was used to identify differentially expressed genes between groups with an adjusted p-value threshold of 0.05.\nRNA was prepared from 5×10^6 cells using the RNeasy Mini Kit according to manufacturer's protocol (Qiagen, 74104). Each cDNA sample was prepared using AMV RT and random primers (Promega, M510F and C1181). Real-time polymerase chain reaction (PCR) was performed using the SyBR Green detection protocol (Life Technologies, 4367659). Briefly, 5 ng of total cDNA, 500 nM (each) primers, and 5 μL SyBR Green mixture were used in a total volume of 10 μL. Detection of multiple endogenous controls (ACTB, L32 and UBIQUITIN) were used to normalize the results. Specific forward and reverse primers are accessible upon request."}, "human primary monocytes": {"test_system": "human primary monocytes", "settings": "literature (Jacquel et al., Blood 2009, Sci Reports 2018); cited from earlier work"}, "[3]": {"settings": "qPCR, Emricasan 3 μM added 16h before polarization"}},
  "data": [
    {"smiles": "C[C@H](NC(=O)C(=O)Nc1ccccc1C(C)(C)C)C(=O)N[C@@H](CC(=O)O)C(=O)COc1c(F)c(F)cc(F)c1F", "note": "[Emricasan, (S)-3-((S)-2-(2-((2-(tert-Butyl)phenyl)amino)-2-oxoacetamido)propanamido)-4-oxo-5-(2,3,5,6-tetrafluorophenoxy)pentanoic acid]", "values": [
      {"measurement": "liver functions in patients suffering liver diseases", "setting": "[1]", "value": "improve liver functions"},
      {"measurement": "IL-4 induction of anti-inflammatory and repression of pro-inflammatory markers (RNAseq)", "setting": "[2]; macrophages from three different donors", "value": "counteracted"},
      {"measurement": "IL-4-increased CCL18 mRNA expression", "setting": "[2]; [3]", "value": "counteracted"},
      {"measurement": "IL-4-increased CD200R mRNA expression", "setting": "[2]; [3]", "value": "counteracted"},
      {"measurement": "CXCL8 mRNA level", "setting": "[2]; qPCR, IL-4 combined with Emricasan 3 μM", "value": "upregulated"}
    ]},
    {"smiles": "CC(C)[C@H](NC(=O)c1ccc2ccccc2n1)C(=O)N[C@@H](CC(=O)O)C(=O)COc1c(F)cccc1F", "note": "[Q-VD-OPh]", "values": [
      {"measurement": "effect on CSF-1-induced monocyte differentiation", "setting": "human primary monocytes", "value": "inhibits"}
    ]}
  ]
}
